Laboratory results taken from the NIST ThermoML archive (doi:10.1021/je700699u).

Experiment: cn = amount concentration of the nth substance listed, in mol/dm3
Conditions: 101 kPa, Liquid

O=C([O-])[C@@H]1CCCN1.[K+] [potassium L-prolinate] + O
Conditions	mass density, 298.15 K [kg/m3]	mass density, 303.15 K [kg/m3]	mass density, 313.15 K [kg/m3]	mass density, 323.15 K [kg/m3]	mass density, 333.15 K [kg/m3]	viscosity, 298.15 K [mPa·s]	viscosity, 303.15 K [mPa·s]	viscosity, 313.15 K [mPa·s]	viscosity, 323.15 K [mPa·s]	viscosity, 333.15 K [mPa·s]
c1 = 0.507	1028	1027	1023	1019	1014	1.107	0.986	0.799	0.664	0.565
c1 = 1.01	1059	1057	1053	1048	1043	1.4	1.242	0.992	0.816	0.685
c1 = 1.523	1089	1087	1082	1077	1072	1.811	1.59	1.251	1.017	0.846
c1 = 2.01	1118	1115	1110	1105	1100	2.365	2.061	1.599	1.286	1.061
c1 = 2.521	1146	1144	1138	1133	1127	3.163	2.721	2.076	1.636	1.331
c1 = 2.983	1171	1168	1162	1156	1150	4.112	3.516	2.664	2.068	1.658
c1 = 3.448	1197	1194	1188	1182	1176	5.732	4.837	3.587	2.767	2.181

NCCCCCC(=O)[O-].[K+] [potassium Salt of 6-aminohexanoic acid] + O
Conditions	mass density, 298.15 K [kg/m3]	mass density, 303.15 K [kg/m3]	mass density, 313.15 K [kg/m3]	mass density, 323.15 K [kg/m3]	mass density, 333.15 K [kg/m3]	viscosity, 298.15 K [mPa·s]	viscosity, 303.15 K [mPa·s]	viscosity, 313.15 K [mPa·s]	viscosity, 323.15 K [mPa·s]	viscosity, 333.15 K [mPa·s]
c1 = 0.497	1024	1022	1018	1014	1009	1.191	1.058	0.854	0.706	0.599
c1 = 1.002	1049	1048	1044	1038	1034	1.608	1.418	1.126	0.913	0.762
c1 = 1.429	1072	1070	1067	1061	1057	2.152	1.882	1.497	1.199	0.987
c1 = 1.982	1098	1095	1089	1084	1078	3.091	2.669	2.035	1.608	1.307
c1 = 2.458	1119	1117	1111	1105	1098	4.445	3.796	2.85	2.211	1.768
c1 = 2.942	1141	1139	1132	1126	1118	6.601	5.573	4.112	3.145	2.458

N[C@@H](CCC(=O)O)C(=O)[O-].[K+] [potassium (S)-2-amino-4-carboxybutanoate] + O
Conditions	mass density, 298.15 K [kg/m3]	mass density, 303.15 K [kg/m3]	mass density, 313.15 K [kg/m3]	mass density, 323.15 K [kg/m3]	mass density, 333.15 K [kg/m3]	viscosity, 298.15 K [mPa·s]	viscosity, 303.15 K [mPa·s]	viscosity, 313.15 K [mPa·s]	viscosity, 323.15 K [mPa·s]	viscosity, 333.15 K [mPa·s]
c1 = 0.248	1029	1027	1024	1019	1017	1.011	0.908	0.744	0.623	0.535
c1 = 0.493	1059	1057	1054	1049	1047	1.163	1.041	0.854	0.713	0.611
c1 = 0.733	1088	1086	1083	1078	1076	1.344	1.199	0.982	0.817	0.699
c1 = 1	1117	1116	1112	1107	1105	1.579	1.404	1.143	0.953	0.809
c1 = 1.24	1145	1143	1139	1134	1132	1.844	1.644	1.336	1.101	0.933
c1 = 1.469	1173	1171	1167	1162	1160	2.194	1.962	1.57	1.295	1.089
